Earlier results on one molecule are cited in patent publication US20070231358A1, “INTRAVAGINAL TREATMENT OF VAGINAL INFECTIONS WITH METRONIDAZOLE COMPOSITIONS” (Tolmar, Inc., priority 2004, published 2007).

Like-named read-outs stand apart in the source and are kept apart here.

The conditions of series [1]: after a single oral dose of 2 grams.
Series [2] concerns bacterial vaginosis. The settings on record: for Cured patients out of 19: four weeks after initiation; for Cure rate (%): four weeks after initiation of therapy.
Series [3] deals with bacterial vaginosis. The settings on record: oral route; 400 to 500 mg twice daily for three to seven days or 2 grams single dose.
[4] abbreviates: oral 400 mg morning and evening for seven days.
Setting [5] is: vaginal insert 500 mg every evening for seven days.

As to `Cc1ncc([N+](=O)[O-])n1CCO` [metronidazole, 1-(2-hydroxyethyl)-2-methyl-5-nitroimidazole], in series [1], the “Concentration of metronidazole in the vaginal fluid” value is given as “low concentration”. Moreover, the Side effects entry in series [2] (intravaginal use as the 500 mg insert) is given as “No side effects were reported”. Moreover, in series [2] (setting [4]), the “Cured patients out of 19” value is 14 and the “Cure rate (%)” value is listed as 74%. In series [2] (setting [5]), the “Cured patients out of 19” value is 15 and the “Cure rate (%)” value was 79%. Moreover, in series [2] (vaginal versus oral treatment), the “Lactate-producing microorganisms (Lactobacilli and aerobic Streptococci) after treatment” value was “found more frequently after vaginal than after oral treatment”. Moreover, the Cure rates in series [3] is reported as 80-90%.
